For experiment [1], the target named is T1, ACO1 (aconitase activity of rat heart homogenate supernatant).
T1 construct: crude rat heart homogenate, 12,000 x g supernatant
The experiment in a line: aconitase activity, absorbance of aconitate at […] nm. The settings on record: 10 min preincubation, citrate 4 μM, 100 μg protein, Tris-HCl 20 mM pH 7.4, room temperature, no oxidant. The format is biochemical.

In experiment [2] the target is T2, ACO1 (recombinant human ACO1 protein) (Homo sapiens, UniProt P21399).
T2 construct: immobilised on CM5 chip at pH 4.0
T2 sequence (P21399 1-889): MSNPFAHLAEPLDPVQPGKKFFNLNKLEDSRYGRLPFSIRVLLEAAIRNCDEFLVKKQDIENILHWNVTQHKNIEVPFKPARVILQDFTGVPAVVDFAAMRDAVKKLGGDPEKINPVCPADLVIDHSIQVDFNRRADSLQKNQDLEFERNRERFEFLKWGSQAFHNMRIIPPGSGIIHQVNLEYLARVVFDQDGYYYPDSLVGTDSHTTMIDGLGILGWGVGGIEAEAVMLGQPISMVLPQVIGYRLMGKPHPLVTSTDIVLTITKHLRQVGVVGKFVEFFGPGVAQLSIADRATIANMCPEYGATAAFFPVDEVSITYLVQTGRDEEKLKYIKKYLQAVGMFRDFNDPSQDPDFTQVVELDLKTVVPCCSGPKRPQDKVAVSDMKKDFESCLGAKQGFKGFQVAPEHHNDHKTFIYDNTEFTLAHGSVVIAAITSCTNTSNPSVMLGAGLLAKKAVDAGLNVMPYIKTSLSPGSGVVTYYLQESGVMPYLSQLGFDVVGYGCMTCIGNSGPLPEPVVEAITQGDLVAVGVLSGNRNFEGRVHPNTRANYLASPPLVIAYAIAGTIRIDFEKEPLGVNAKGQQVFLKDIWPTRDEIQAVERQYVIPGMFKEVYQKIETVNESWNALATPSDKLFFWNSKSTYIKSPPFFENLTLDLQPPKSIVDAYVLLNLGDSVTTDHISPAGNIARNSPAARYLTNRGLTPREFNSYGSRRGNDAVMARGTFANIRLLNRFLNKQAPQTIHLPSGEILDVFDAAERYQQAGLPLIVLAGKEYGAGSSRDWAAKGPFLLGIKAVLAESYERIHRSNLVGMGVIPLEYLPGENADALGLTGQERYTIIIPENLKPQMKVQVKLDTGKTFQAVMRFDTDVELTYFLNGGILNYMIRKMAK
Nature of the experiment: surface plasmon resonance (Biacore X100, CM5 chip). The format is binding.

In turn, `O=c1cc(-c2ccccc2)oc2cc(O)c(O)c(O)c12` [baicalein, 5,6,7-trihydroxyflavone] returned an IC50 in experiment [1] of 166 µM. Moreover, the Kd in experiment [2] is 198 µM.

The values are drawn from PMC9854573, “Baicalein Attenuates Brain Iron Accumulation through Protecting Aconitase 1 from Oxidative Stress in Rotenone-Induced Parkinson’s Disease in Rats” (Antioxidants, 2022).
